Laboratory results from article PMC9229294, “Pyridazinones and Structurally Related Derivatives with Anti-Inflammatory Activity” (Molecules, 2022).
Like-named read-outs stand apart in the source and are kept apart here.

Columns and labels:
[1] = target: T1, FPR2 (Homo sapiens, UniProt P25090); conditions: FPR2-transfected HL-60 cells, read-out: Ca2+ Mobilization FPR2 EC50 in HL-60 Cells, cited from earlier work
T1 construct: expressed in transfected cells; host or cells: HL-60 cells (FPR2-HL60)
T1 sequence (P25090 1-351): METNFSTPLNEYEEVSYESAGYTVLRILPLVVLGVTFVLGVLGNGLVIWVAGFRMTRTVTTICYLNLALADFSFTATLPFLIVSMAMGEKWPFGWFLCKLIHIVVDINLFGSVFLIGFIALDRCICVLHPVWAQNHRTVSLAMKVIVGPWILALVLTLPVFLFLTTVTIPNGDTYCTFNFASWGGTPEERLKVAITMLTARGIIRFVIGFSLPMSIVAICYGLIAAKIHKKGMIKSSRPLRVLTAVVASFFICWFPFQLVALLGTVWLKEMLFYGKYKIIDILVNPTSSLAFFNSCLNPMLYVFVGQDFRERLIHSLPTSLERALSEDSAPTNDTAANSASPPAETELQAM

[2] = system: LPS-induced NF-κB activity in THP1-Blue cells; experiment: Inhibition of LPS-induced NF-κB transcriptional activity, alkaline phosphatase reporter, THP1-Blue cells; format: cell-based, human; conditions: for IC50: Homo sapiens, LPS-induced NF-κB activity, human THP1-Blue cells, N.A. = no activity at 50 µM; for Observed class for inhibition of NF-κB activity: experimentally observed, Active or N.A.; for Inhibition of LPS-induced NF-κB activity (in words): THP1-Blue cells, 250 ng/mL LPS, 24 h
Experimental: (§1) Our studies included 175 compounds that were previously synthesized and characterized at NEUROFARBA, Pharmaceutical and Nutraceutical Section, University of Florence, Italy. We previously evaluated the FPR1/FPR2 agonist activity of these compounds by evaluating their ability to induce Ca^2+ mobilization in FPR-transfected HL60 cells and human neutrophils. […] All test compounds were dissolved in DMSO at stock concentrations of 10 mM and stored at −20 °C. For primary screening assays (analysis of NF-κB activation, IL-6 production, and cytotoxicity), the following final concentrations of the compounds were used: 3.125, 6.25, 12.5, 25, and 50 µM; the final concentration of DMSO was 1% in all samples.
The activation of NF-κB was measured using an alkaline phosphatase reporter assay in human monocytic THP1-Blue cells stably transfected with a secreted embryonic alkaline phosphatase gene that is under the control of a promoter inducible by the NF-κB. The THP1-Blue cells (2 × 10^5 cells/well) were pretreated with the test compound or DMSO for 30 min, followed by an addition of 250 ng/mL LPS for 24 h. Alkaline phosphatase activity was determined in cell supernatants using a QUANTI-Blue mix (InvivoGen) and measured at 655 nm and compared with positive control samples (LPS).

[3] = system: LPS-induced IL-6 production in MonoMac-6 cells; experiment: Inhibition of LPS-induced IL-6 production in MonoMac-6 cells (ELISA); format: cell-based, human; conditions: for IC50: Homo sapiens, MONO-MAC-6, read-out: Inhibition of IL-6 Production IC50 in MonoMac-6 Cells; for Inhibition of LPS-induced IL-6 production (in words): MonoMac-6 cells, 250 ng/mL LPS, 24 h
Experimental: as §1
A human IL-6 ELISA kit (BD Biosciences, San Jose, CA, USA) was used to measure IL-6 production. […] The cells were pretreated with the test compound or DMSO for 30 min, followed by addition of 250 ng/mL LPS for 24 h. The IC50 values for IL-6 production were calculated by plotting the percentage inhibition against the logarithm of the inhibitor concentration (at least five points).

[4] = target: T2, FPR1 (Homo sapiens, UniProt P21462); conditions: FPR1-transfected HL-60 cells, read-out: Ca2+ Mobilization FPR1 EC50 in HL-60 Cells, cited from earlier work
T2 construct: expressed in transfected cells; host or cells: HL-60 cells (FPR1-HL60)
T2 sequence (P21462 1-350): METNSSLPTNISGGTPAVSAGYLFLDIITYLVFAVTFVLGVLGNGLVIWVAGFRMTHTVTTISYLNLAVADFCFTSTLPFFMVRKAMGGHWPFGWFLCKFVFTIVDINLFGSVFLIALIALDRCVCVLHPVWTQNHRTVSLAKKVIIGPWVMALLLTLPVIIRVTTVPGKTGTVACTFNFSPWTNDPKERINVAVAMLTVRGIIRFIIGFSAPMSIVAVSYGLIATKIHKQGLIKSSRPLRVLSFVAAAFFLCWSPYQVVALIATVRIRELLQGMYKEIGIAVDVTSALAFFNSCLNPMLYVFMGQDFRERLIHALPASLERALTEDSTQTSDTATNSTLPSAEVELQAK

[5] = Cytotoxicity, CellTiter-Glo, MonoMac-6 cells; format: cell-based, human; conditions: human, MonoMac-6 cells
Experimental: as §1
(§2) The cytotoxicity was analyzed with a CellTiter-Glo Luminescent Cell Viability Assay Kit from Promega (Madison, WI, USA), according to the manufacturer’s protocol. The luminescent ATP assays are based on a luciferase enzymatic reaction which uses ATP from viable cells to generate photons. For this assay, the cells were incubated with the compounds under investigation for 24 h. After treatment, the cells were equilibrated to room temperature for 30 min, luciferase + luciferin substrate was added, and the samples were analyzed with a Fluoroscan Ascent FL (Thermo Fisher Scientific, Waltham, MA, USA). The IC50 values were calculated by plotting the percentage inhibition against the logarithm of the inhibitor concentration (at least five points).

[6] = Cytotoxicity, CellTiter-Glo, THP1-Blue cells; format: cell-based, human; conditions: human, THP1-Blue cells; N.T. = no cytotoxicity at 50 µM; read-out: Cytotoxicity IC50 in THP1-Blue Cells
Experimental: as §1, §2

[7] = Table 3, as reported previously (see Table 1)

Structure (SMILES)	IC50 [2]	IC50 [3]	EC50 ([1]; agonist activity from Table 1)	EC50 [1, 7]	Observed class for inhibition of NF-κB activity [2]	Inhibition of LPS-induced IL-6 production (in words) [3]	EC50 ([4]; agonist activity from Table 1)	EC50 [4, 7]	IC50 at 24 h [5]	IC50 at 24 h [6]	Inhibition of LPS-induced NF-κB activity (in words) [2]
COc1ccc(-c2cc(Cc3cccc(OC)c3)c(=O)n(CC(=O)Nc3ccc(F)cc3)n2)cc1 [Compound 38]	19.6 ± 4.3 µM	20.3 ± 1.8 µM	> 50 µM	> 50 µM	Active	inhibitors of IL-6 production	> 50 µM	> 50 µM	> 50 µM	> 50 µM	–
COc1cccc(Cc2cc(-c3ccc(Cl)cc3)nn(CC(=O)Nc3ccc(F)cc3)c2=O)c1 [Compound 42]	22.5 ± 2.3 µM	35.6 ± 3.1 µM	> 50 µM	> 50 µM	–	inhibitors of IL-6 production	> 50 µM	> 50 µM	> 50 µM	> 50 µM	active
CCc1c(C)nn(CC(=O)Nc2ccc(Br)cc2)c(=O)c1Cc1cccc(OC)c1 [Compound 78]	20.7 ± 0.7 µM	17 ± 0.4 µM	–	1.9 µM	Active	–	–	3.2 µM	> 50 µM	> 50 µM	–
CCCc1c(C)nn(CC(=O)Nc2ccc(Br)cc2)c(=O)c1Cc1cccc(OC)c1 [Compound 79]	15.7 ± 1.4 µM	13.7 ± 1.4 µM	4.6 µM	–	Active	–	2.2 µM	–	> 50 µM	> 50 µM	–
CCCCc1c(C)nn(CC(=O)Nc2ccc(Br)cc2)c(=O)c1Cc1cccc(OC)c1 [Compound 80]	15 ± 1.5 µM	33.5 ± 2.4 µM	–	15.7 µM	Active	–	> 50 µM	> 50 µM	> 50 µM	> 50 µM	–
COc1cccc(Cc2cc(C)nn(C(C)(C)C(=O)Nc3ccc(Br)cc3)c2=O)c1 [Compound 89]	29.2 ± 1 µM	27.9 ± 2.2 µM	20.4 µM	20.4 µM	Active	–	6.3 µM	6.3 µM	> 50 µM	> 50 µM	–

More lines, main results first:

IC50 [2]	IC50 [3]	Structure (SMILES)	EC50 ([1]; agonist activity from Table 1)	EC50 [1, 7]	Observed class for inhibition of NF-κB activity [2]	Inhibition of LPS-induced IL-6 production (in words) [3]	EC50 ([4]; agonist activity from Table 1)	EC50 [4, 7]	IC50 at 24 h [5]	IC50 at 24 h [6]	Inhibition of LPS-induced NF-κB activity (in words) [2]
8.2 ± 1.2 µM	> 50 µM	COc1cccc(Cc2cc(-c3ccc(C)cc3)nn(CC(=O)Nc3ccc(F)cc3)c2=O)c1 [Compound 46]	> 50 µM	> 50 µM	–	inhibitors of IL-6 production	> 50 µM	> 50 µM	> 50 µM	> 50 µM	active
3.4 ± 0.2 µM	18.8 ± 2.9 µM	COc1cccc(Cc2cc(-c3ccc(F)cc3)nn(CC(=O)Nc3ccc(F)cc3)c2=O)c1 [Compound 47]	> 50 µM	> 50 µM	–	inhibitors of IL-6 production	> 50 µM	> 50 µM	> 50 µM	> 50 µM	active
14.6 ± 1.4 µM	15.2 ± 0.2 µM	CCCc1c(C)nn(CC(=O)Nc2ccc(Br)cc2)c(=O)c1Nc1cccc(OC)c1 [Compound 83]	> 50 µM	> 50 µM	Active	inhibitors of IL-6 production	> 50 µM	> 50 µM	> 50 µM	> 50 µM	–
